Reference: patent publication US20260071234A1, “METHODS AND COMPOSITIONS FOR HEMATOPOIETIC STEM CELL ENHANCEMENT” (THE REGENTS OF THE UNIVERSITY OF CALIFORNIA, priority 2022, published 2026)

What was measured:
[1] = tested on: HLF+ HSC; conditions: day 10 cultures; applicant's analysis of published dataset; cited from earlier work
[2] = tested on: E4EC; test: FACS based endocytosis assay, internalized fluorescent dextran in E4EC; assay type: cell-based, human; conditions: MYCT1 KD E4EC, 10 μM chlorpromazine
Protocol: (§1) HSPC or endothelial cells transduced with control, MYCT1 KD, or MYCT1 OE lentiviral vectors were incubated with fluorescent dextran (pHrodo Red Dextran, ThermoFisher Scientific P10361) 40 μg/ml for 30 minutes at 37° C. After incubation, cells were immediately placed on ice, washed with ice-cold DPBS with 5% FBS and resuspended into single cell suspension for FACS analysis. 7AAD was included to discriminate dead cells.

[3] = tested on: CB HSPCs; test: FACS based endocytosis assay, internalized fluorescent dextran in CB HSPCs; assay type: cell-based, human; conditions: MYCT1 KD CB HSPCs cultured 5 days; chlorpromazine 10 μM, MbCD 1 mM
Protocol: as §1

Compound | MYCT1 expression in HLF+ HSC [1] | internalized fluorescent dextran after pre-treatment with endocytosis inhibitor [2] | dextran internalization after pre-treatment with endocytosis inhibitor [3]
CC(C)n1cnc2c(NCCc3ccc(O)cc3)nc(-c3csc4ccccc34)nc21 [SR1] | minimal MYCT1 expression | – | –
CN(C)CCCN1c2ccccc2Sc2ccc(Cl)cc21 [chlorpromazine] | – | dampened the increased endocytosis caused by MYCT1 loss | not sufficient to restore hyperactive endocytosis
Cn1nnc(-c2ccc3c(c2)[nH]c2nc(Cc4ccccc4)nc(NC4CCC(N)CC4)c23)n1 (centres unmarked) [UM171] | minimal MYCT1 expression | – | –
methyl-beta-cyclodextrin | – | – | not sufficient to restore hyperactive endocytosis
